{
  "source": "patent US20260373136A1",
  "about": "“A NOVEL DOSAGE REGIMEN USING LOW DOSES OF DONEPEZIL OR DERIVATIVE THEREOF FOR PREVENTING OR TREATING A COMPULSIVE DISORDER” (SORBONNE UNIVERSITE, priority 2022, published 2026)",
  "key": {"[1]": {"assay": "Clinical observation of eating disorder behaviours and cognitions of anorexic patients treated with donepezil", "assay_type": "in vivo, human", "method": "(§1) 6 anorexic patients were treated with donepezil: 5 of them with a daily dose according to the present invention and 1 with a higher dose (comparative).\n(§2) The studies were led in hospital. Each case is presented below.\n(§3) Patient #2 is a person who developed anorexia nervosa restricting type in adolescence. They were very restricted in the types of food they ate and could not eat food that was processed or high in sugar or fats. They exercised 3-4 hours a day. They were unable to reduce their exercising even minimally […] becoming flooded with debilitating anxiety. They were unable to eat enough to maintain a healthy weight. Their BMI was 18.5 kg/m^2 and was medically stable when they started donepezil.\n(§4) The treatment started with a daily dose of donepezil of 0.5 mg for 10 days then the daily dose was increased to 1 mg for 7 days then increased to 1.5 mg for 71 days (2 months and 10 days) then increased to 2 mg for 22 days and then increased to 2.5 mg and remains on this dose for 4 months and 18 days.\nPatient #3 is a person with a 20-year history of anorexia nervosa binge/purge type who had been in recovery for two years before relapsing following a relationship trauma. They were slowly losing weight and was bingeing and purging multiple times every evening. They also were waking up every morning at 4 am to exercise obsessively for hours. They were spending all their disposable income on binge foods and was slowly draining their savings. At times they were stealing food to binge on.\nThe treatment started with a daily dose of donepezil of 0.5 mg for 10 days and then the daily dose was increased to 1 mg for 9 days and then increased to 1.5 mg for 17 days and then increased to 2 mg for 7 days and then increased to 2.5 mg for 16 days and then discontinued.\n(§5) The treatment started with a daily dose of donepezil of 0.5 mg for 13 days then the daily dose was increased to 0.75 mg for 9 days then increased to 1 mg for 17 days and then increased to 1.5 mg and remained at this dosage for a month then stopped for two months and then restarted with a daily dose of 1.5 mg that remains within 1 month and then discontinued.\nA patient who has suffered from anorexia nervosa during their second pregnancy. They have been vigilant about their caloric intake and body image since their adolescence. They also suffer from recurrent depression treated with venlafaxine 75 mg per day and a generalized anxiety disorder. Undernutrition worsened markedly, reaching a minimum BMI of 11 kg/m^2. The maximum lifetime BMI excluding pregnancy is 19.8 kg/m^2. The symptomatology is dominated by qualitative and quantitative food restriction and physical hyperactivity. There is a period of several months of hyperphagia and provoked vomiting. Neurocognitive executive functions are preserved, there is a high tolerance of delayed reward measured by Delay Discounting Task.\nDonepezil was taken at a rate of 2.5 mg per day for 2 months.\nA person with a 20-year history of anorexia nervosa-binge/purge subtype and a comorbid history or obsessive-compulsive disorder. They have been very symptomatic throughout their adolescence and went into a partial remission in early adulthood. Over the next 10 years, their symptoms waxed and waned and they had 2 major relapses that they had slowly recovered from. They were currently weight restored but following some environmental stresses, was starting to relapse. They were struggling with increasing eating disordered ruminations and cognitions, increasing body image distortions and dissatisfaction. They were becoming more rigid and restrictive in their eating. They also saw a rise in their obsessive-compulsive disorder symptoms.\n(§6) The treatment started with a daily dose of donepezil of 0.5 mg for 8 days and then the daily dose was increased to 1 mg for 9 days and then increased to 1.67 mg for 62 days and then increased to 2.5 mg."}, "[2]": {"assay": "Body weight / BMI of anorexic patients treated with donepezil", "assay_type": "in vivo, human", "method": "The term “Body Mass Index” (BMI) is calculated by dividing the body mass of an individual (in kg) by his height (in […]). The BMI is generally used to evaluate if an individual suffers from under nutrition or on the contrary if he/she suffers from overweight or obesity.\nas §1, §2, §3, §4, §5\nA patient who has suffered from anorexia nervosa during their second pregnancy. They have been vigilant about their caloric intake and body image since their adolescence. […] The symptomatology is dominated by qualitative and quantitative food restriction and physical hyperactivity. […] Neurocognitive executive functions are preserved, there is a high tolerance of delayed reward measured by Delay Discounting Task. […]"}, "[3]": {"assay": "Yale-Brown Obsessive Compulsive Scale questionnaire (Y-BOCS) before and after treatment", "assay_type": "in vivo, human", "settings": "for OCD symptoms: Y-BOCS post vs pre-treatment; for Y-BOCS score, post treatment: 0-7 subclinical, 8-15 mild, 16-23 moderate, 24-31 severe, 32-40 extreme symptoms", "method": "as §1, §2, §4\nPatient #2 obsessive-compulsive disorders (OCD) symptoms have also been evaluated with the Yale-Brown Obsessive Compulsive Scale questionnaire (Y-BOCS) (available on https://pcl.psychiatry.uw.edu/wp-content/uploads/2021/12/YBOCS.pdf) before and after the treatment. The following scores have been obtained:\nThe score obtained with questionnaire Y-BOCS is classified as follows: • 0-7: subclinical; 8-15: mild symptoms; 16-23: moderate symptoms; 24-31: severe symptoms; 32-40: extreme symptoms\nas §5\nPatient #4 obsessive-compulsive disorders (OCD) symptoms have also been evaluated with questionnaire Y-BOCS-before and after the treatment. The following scores have been obtained:\nas §6\nPatient #6 obsessive-compulsive disorders (OCD) symptoms have also been evaluated with questionnaire Y-BOCS-before and after the treatment."}, "[4]": {"system": "AChE", "settings": "background statement; cited from earlier work"}, "[5]": {"assay": "Eating Disorder Examination Questionnaire (EDE-q) before and after treatment", "assay_type": "in vivo, human", "design": "scale not given here", "settings": ">=4 clinical range, >2.8 possible clinically significant pathology", "method": "as §1, §2, §5\nThe eating disorders of patient #4 before and after treatment have been evaluated with the Eating Disorder Examination Questionnaire (EDE-q) (available on https://www.corc.uk.net/outcome-experience-measures/eating-disorder-examination-questionnaire-ede-q/) which has given the following results:\nas §6\nThe eating disorders of patient #6 before and after treatment have been evaluated with EDE-q questionnaire which has given the following results: […]"}, "[6]": {"settings": "Patient #2, daily dose 0.5-2.5 mg, over the next 5 months"}, "[7]": {"settings": "Patient #3, daily dose 0.5-2.5 mg, within a month of starting"}, "[8]": {"settings": "Patient #6, daily dose 0.5 mg to 2.5 mg, over 3 months"}, "[9]": {"settings": "low dose between 0.5 and 2.5 mg/day, clinical cases overall (conclusion)"}, "[10]": {"settings": "Patient #2, daily dose 0.5-2.5 mg"}, "[11]": {"settings": "Patient #6, daily dose 0.5 mg to 2.5 mg, pre-treatment 3.8"}},
  "note": "Where two headings read alike, the source gives them in different places.",
  "data": [
    {"compound": "COc1cc2c(cc1OC)C(=O)C(CC1CCN(Cc3ccccc3)CC1)C2", "note": "(stereo not shown) [donepezil]", "values": [
      {"measurement": "flexibility with eating", "setting": "[1]; [6]", "value": "able to be more flexible with their eating and incorporate a wider variety of foods"},
      {"measurement": "preoccupation with weight or appearance", "setting": "[1]; [6]", "value": "much less preoccupied with their weight or appearance"},
      {"measurement": "ruminations and compulsions to exercise", "setting": "[1]; [6]", "value": "decrease in ruminations and compulsions to exercise"},
      {"measurement": "exercise per day", "setting": "[1]; Patient #2, daily dose 0.5-2.5 mg, over the next 5 months, exercised 3-4 hours a day before", "value": 90, "unit": "minutes a day"},
      {"measurement": "bingeing (and consequent purging)", "setting": "[1]; [7]", "value": "able to reduce their bingeing (and consequent purging) significantly"},
      {"measurement": "stealing food", "setting": "[1]; [7]", "value": "stopped stealing food completely"},
      {"measurement": "maximum spending on binge foods", "setting": "[1]; Patient #3, daily dose 0.5-2.5 mg, within a month of starting, all disposable income before", "value": "≤ 5.00 $"},
      {"measurement": "flexibility with eating and eating disordered cognitions", "setting": "[1]; Patient #4, daily dose 1.5 mg, within a month", "value": "more flexible with their eating and less preoccupied with their eating disordered cognitions and urges to restrict and lose weight"},
      {"measurement": "flexibility with eating and weight after restart", "setting": "[1]; Patient #4, donepezil restarted for a month at 1.5 mg daily, improvements continued after discontinuing", "value": "more flexible with their eating, and they started to gain weight slowly"},
      {"measurement": "eating disordered cognitions after stopping medication", "setting": "[1]; Patient #4, two months without donepezil after 1st month at 1.5 mg daily", "value": "increasing rigidity in their eating disordered cognitions"},
      {"measurement": "ease of eating", "setting": "[1]; Patient #5, 2.5 mg per day for 2 months, end of treatment period", "value": "began to eat more easily"},
      {"measurement": "eating disordered cognitions and ruminations", "setting": "[1]; [8]", "value": "significant decrease in their eating disordered cognitions and ruminations"},
      {"measurement": "intensity of body image distress", "setting": "[1]; [8]", "value": "reduction in the intensity of their body image distress"},
      {"measurement": "usefulness to treat anorexia and related compulsive behaviors", "setting": "[1]; [9]", "value": "useful to treat anorexia and related compulsive behaviors"},
      {"measurement": "BMI", "setting": "[2]; Patient #2, daily dose 0.5-2.5 mg, over the next 5 months, BMI 18.5 kg/m^2 at start, maintained", "value": "over 20 kg/m^2"},
      {"measurement": "BMI", "setting": "[2]; Patient #4, daily dose 1.5 mg, within a month, BMI plateaued after rise to 15 kg/m^2 before treatment", "value": 15.6, "unit": "kg/m^2"},
      {"measurement": "body weight", "setting": "[2]; Patient #5, 2.5 mg per day for 2 months, from 27 kg, in 3 months", "value": 36, "unit": "kg"},
      {"measurement": "OCD symptoms", "setting": "[3]; [10]", "value": "diminution of OCD symptoms"},
      {"measurement": "Y-BOCS score, post treatment", "setting": "[3]; Patient #2, daily dose 0.5-2.5 mg, pre-treatment score 32", "value": 22},
      {"measurement": "OCD symptoms", "setting": "[3]; Patient #4, daily dose 0.5 to 1.5 mg", "value": "diminution of OCD symptoms"},
      {"measurement": "Y-BOCS score, post treatment", "setting": "[3]; Patient #4, daily dose 0.5 to 1.5 mg, pre-treatment score 28", "value": 16},
      {"measurement": "OCD symptoms", "setting": "[3]; Patient #6, daily dose 0.5 mg to 2.5 mg", "value": "diminution of OCD symptoms"},
      {"measurement": "Y-BOCS score, post treatment", "setting": "[3]; Patient #6, daily dose 0.5 mg to 2.5 mg, pre-treatment score 28", "value": 17},
      {"measurement": "inhibition of AChE", "setting": "[4]", "value": "reversible and selective inhibitor of AChE"},
      {"measurement": "EDE-q Restraint score, post treatment", "setting": "[5]; Patient #4, daily dose 0.5 to 1.5 mg, pre-treatment 4", "value": 2},
      {"measurement": "EDE-q Eating concerns score, post treatment", "setting": "[5]; Patient #4, daily dose 0.5 to 1.5 mg, pre-treatment 4.6", "value": 2.2},
      {"measurement": "EDE-q Global scores, post treatment", "setting": "[5]; Patient #4, daily dose 0.5 to 1.5 mg, pre-treatment 4.9", "value": 3.0},
      {"measurement": "EDE-q Weight concerns score, post treatment", "setting": "[5]; Patient #4, daily dose 0.5 to 1.5 mg, pre-treatment 5.4", "value": 3.4},
      {"measurement": "EDE-q Shape concerns score, post treatment", "setting": "[5]; Patient #4, daily dose 0.5 to 1.5 mg, pre-treatment 5.8", "value": 4.4},
      {"measurement": "EDE-q Eating concerns score, post treatment", "setting": "[5]; Patient #6, daily dose 0.5 mg to 2.5 mg, pre-treatment 0.6", "value": 0.4},
      {"measurement": "EDE-q Global scores, post treatment", "setting": "[5]; Patient #6, daily dose 0.5 mg to 2.5 mg, pre-treatment 3.4", "value": 2.6},
      {"measurement": "EDE-q Restraint score, post treatment", "setting": "[5]; [11]", "value": 2.8},
      {"measurement": "EDE-q Weight concerns score, post treatment", "setting": "[5]; [11]", "value": 3.2},
      {"measurement": "EDE-q Shape concerns score, post treatment", "setting": "[5]; Patient #6, daily dose 0.5 mg to 2.5 mg, pre-treatment 5.4", "value": 4.1},
      {"measurement": "improvement and severe side effects", "setting": "Other patients (#2-#6), 0.5-2.5 mg PO OD (conclusion)", "value": "improved without severe side effects"},
      {"measurement": "blood pressure", "setting": "Patient #1 (comparative), 5 mg daily per os, in local emergency department, previously normal 120/70 mmHg, no other cause found, donepezil discontinued", "value": "183/124"},
      {"measurement": "side-effects", "setting": "Patient #1 (comparative), 5 mg daily per os, within 5 days, responded to over-the-counter pain medications", "value": "drowsiness and headaches"},
      {"measurement": "blood pressure", "setting": "Patient #1 (comparative), 5 mg daily per os, within a week, previously normal 120/70 mmHg", "value": "175/120"},
      {"measurement": "blood pressure", "setting": "Patient #1 (comparative), next few weeks after discontinuing donepezil (5 mg daily), previously normal 120/70 mmHg", "value": "140/95"},
      {"measurement": "severe side effect", "setting": "Patient #1, 5 mg PO OD (conclusion)", "value": "severe side effect (high blood pressure and severe headache)"},
      {"measurement": "blood pressure", "setting": "[10]", "value": "remained unaffected"},
      {"measurement": "other side-effects", "setting": "[10]", "value": "no other side-effects"},
      {"measurement": "side effects", "setting": "[9]", "value": "without causing any side effects"}
    ]}
  ]
}
